We go through 3 compounds from patent US9814778B2, “Ionically crosslinked polyelectrolytes as underwater adhesives as controlled release vehicles” (The University of Toledo, priority 2014, dated 2017).

For data set [1] the following is noted: in solution; cited from earlier work.
Another data set deals with PAH/PPi complexes. As to the kind of experiment: Isothermal titration calorimetry of dyes into PAH/PPi dispersion. The conditions noted are these: pH 7. The class given is binding. The method, then: (§1) The Fast Green FCF and Rhodamine B solutions were then prepared at concentrations of 0.43 and 0.80 wt %, respectively. All solutions were adjusted to pH 7 using HCl and NaOH. ITC experiments were run by placing the PAH/PPi or PAH/TPP complex solutions in the sample cell, and loading the dye solution into the injector. The dye solutions were then titrated using twenty 15-μL injections, with 20 min equilibration intervals between each injection. The contents of the sample cell were stirred at 307 rpm with the impeller-shaped injector tip. The instrument software was used to integrate the raw ITC data obtained from these titrations. The heat of dilution, which was obtained by titrating the dye solutions into DI water, was then subtracted from the integrated data to obtain the final thermograms. To ensure reproducibility, each ITC test was repeated twice.
(§2) Fast Green FCF and Rhodamine B are anionic and cationic, respectively. ITC was used to probe the binding of these dye molecules to the ionically crosslinked networks. In ITC the heat required to maintain a sample cell (which contains a binding substrate solution) at a constant temperature upon the addition of a binding ligand solution is measured, with endothermic or exothermic peaks in the ITC raw data indicating binding. […]
In general terms: ITC needs no label: the signal is the heat of the interaction.

The nature of data set [2]: Dye loading efficiency and loading capacity of dye-loaded coacervates (UV-Vis of supernatant). The data set is classed as physicochemical. How it is done:
All solutions were adjusted to pH 7 using HCl and NaOH prior to mixing. The mixtures were than centrifuged at 15,000 rpm for 90 min using an Ependorf centrifuge. […] The loading capacity (LC) and loading efficiency (LE) for each loading procedure was calculated by subtracting the mass of dye in the supernatant from the total mass of dye originally in the solutions in the microcentrifuge tubes. The total dye mass in the supernatant was determined by measuring the supernatant mass in each tube and determining the supernatant dye concentration using UV-Vis spectroscopy (Varian Cary 50 Spectrophotometer) and the absorbance at a wavelength of 614 nm (ε=9.57×103 m2/mol) and 555 nm (ε=9.82×103 m2/mol) for Fast Green FCF and Rhodamine B, respectively. The LC and LE were then calculated using the following equations: […]
Similarly, the LEs of the dye-loaded complexes was measured at a constant initial dye concentration of 1 mg/ml while the PAH concentration was varied. The dye-loaded complex samples were prepared as outlined above; however, the PAH concentration was varied (between 2.5 and 10.0 wt %). […] The LC- and LE-values were then determined using Equations 1 and 2.

For the next data set, the system named is PAH/TPP complexes. As to the kind of experiment: Isothermal titration calorimetry of dyes into PAH/TPP dispersion. The conditions noted are these: pH 7. The class given is binding. The method, then:
as §1, §2

A short description of data set [3]: Dye release from dye-loaded complexes in 1×PBS at 37° C. (UV-Vis). The conditions noted are these: PAH/PPi and PAH/TPP complexes, 7-8 mm plugs, time span of up to 164 days. The class given is physicochemical. How it is done: The supernatant was removed from the microcentrifuge tube, and the inside of the tube was rinsed with DI water to ensure all excess supernatant was removed. The release medium, 1 ml of 1×PBS, was then added to the microcentrifuge tube. During the release evaluations, the contents of the microcentrifuge tube was mixed at 400 rpm in an Ependorf Thermomixer at 37° C. The old PBS solution was replaced with fresh PBS daily. UV-Vis spectroscopy was used to determine the amount of dye released within this one day interval. The concentration of dye in the PBS was determined using the absorbance of the solution as described above. These release studies were run until the amount of dye released in one day became so low that a discernable peak in the UV-Vis spectrum could not be obtained. The weight of the adhesives was also tracked during the release process using the procedure described above. Each release experiment was repeated thrice to ensure reproducibility. An additional release study was run (using the same complex/dye compositions) with tap water at room temperature as the release medium.
The released dye concentration in the PBS was determined using UV-Vis spectroscopy, with the PBS being replaced daily. This procedure was repeated until discernable UV-Vis peaks could no longer be obtained from the PBS samples in order to obtain release profiles. […]

[4] abbreviates: PAH/PPi, initial dye 0.5 mg/ml, 10.0 wt % PAH.
[5] abbreviates: PAH/PPi, initial dye 1 mg/ml, 5% PAH.
Where [6] appears, read: PAH/PPi, initial dye 1 mg/ml, 10% PAH.
[7] abbreviates: PAH/PPi, initial dye 1 mg/ml, 10.0 wt % PAH.
The mark [8] stands for this setting: PAH/PPi, initial dye 4 mg/ml, 10.0 wt % PAH.
Where [9] appears, read: PAH/TPP, initial dye 0.5 mg/ml, 10.0 wt % PAH.
Where [10] appears, read: PAH/TPP, initial dye 1 mg/ml, 5% PAH.
The mark [11] stands for this setting: PAH/TPP, initial dye 1 mg/ml, 10% PAH.
Where [12] appears, read: PAH/TPP, initial dye 1 mg/ml, 10.0 wt % PAH.
Where [13] appears, read: PAH/TPP, initial dye 4 mg/ml, 10.0 wt % PAH.

Some results are limits rather than exact numbers.

Regarding tripolyphosphate [TPP], in data set [1], the “pKa,3” value is 2.8, the “pKa,4” value was 6.5 and the “pKa,5” value is 9.2.
With `CCN(CC)c1ccc2c(-c3ccccc3C(=O)O)c3ccc(=[N+](CC)CC)cc-3oc2c1.[Cl-]` [Rhodamine B], the “binding to the ionically crosslinked network (ITC)” value in the data set with PAH/PPi complexes is “binds only very weakly and non-cooperatively”; in the data set on PAH/TPP complexes, “binds only very weakly and non-cooperatively”. Besides, the “Loading Capacity” value was determined as 0.55 ± 0.16 mg/mL in data set [2] (setting [4]); 0.71 ± 0.09 mg/mL in data set [2] (setting [7]); 3.46 ± 1.24 mg/mL in data set [2] (setting [8]); 0.45 ± 0.11 mg/mL in data set [2] (setting [9]); 0.65 ± 0.11 mg/mL in data set [2] (setting [12]); 2.74 ± 0.58 mg/mL in data set [2] (setting [13]). The “Loading Efficiency” value stood at 9.83 ± 2.79% in data set [2] (setting [4]); 1.49 ± 0.30% in data set [2] (PAH/PPi, initial dye 1 mg/ml, 2.5% PAH); 3.76 ± 0.45% in data set [2] (setting [5]); 6.38 ± 0.79% in data set [2] (setting [6]); 7.76 ± 2.77% in data set [2] (setting [8]); 8.71 ± 2.10% in data set [2] (setting [9]). Also, the “Loading Efficiency” value is recorded as 1.59 ± 0.65% in data set [2] (PAH/TPP, initial dye 1 mg/ml, 2.5% PAH); 3.78 ± 0.32% in data set [2] (setting [10]); 6.27 ± 1.04% in data set [2] (setting [11]); 6.62 ± 1.41% in data set [2] (setting [13]).
Regarding `CCN(Cc1cccc(S(=O)(=O)[O-])c1)c1ccc(C(=C2C=CC(=[N+](CC)Cc3cccc(S(=O)(=O)[O-])c3)C=C2)c2ccc(O)cc2S(=O)(=O)[O-])cc1.[Na+].[Na+]` [Fast Green, Fast Green FCF], the “binding to the ionically crosslinked network (ITC)” value in the data set on PAH/PPi complexes and in the data set with PAH/TPP complexes was “strong cooperative binding” in each case. Besides, the “Loading Capacity” value in data set [2] (setting [4]) came out at 3.16 ± 0.17 mg/mL; in data set [2] (setting [7]) it was 7.04 ± 0.15 mg/mL; in data set [2] (setting [8]) it was 30.62 ± 0.93 mg/mL; in data set [2] (setting [9]), 3.31 ± 0.07 mg/mL; in data set [2] (setting [12]) it was 7.54 ± 0.32 mg/mL; in data set [2] (setting [13]), 30.89 ± 1.43 mg/mL. The “Loading Efficiency” value is listed as 56.48 ± 3.04% in data set [2] (setting [4]); 61.69 ± 1.13% in data set [2] (setting [5]); 63.03 ± 1.37% in data set [2] (setting [6]); 68.54 ± 2.09% in data set [2] (setting [8]); 64.01 ± 1.45% in data set [2] (setting [9]); 72.40 ± 0.53% in data set [2] (setting [10]). Also, the “Loading Efficiency” value in data set [2] (setting [11]) amounted to 72.94 ± 3.09%; in data set [2] (setting [13]), 74.74 ± 3.47%. Also, in data set [3], the “fraction of payload released” value was less than 5%.
